This is an account of results in patent US20230241073A1, “PHARMACEUTICAL COMPOSITION FOR PREVENTING OR TREATING NON-SMALL CELL LUNG CANCER ASSOCIATED WITH RON MUTANTATION, AND METHOD USING SAME” (WELLMARKER BIO CO., LTD., priority 2020, published 2023).

pIC50: −log10 of the molar value.

As a reminder, the pIC50 is −log10 of the IC50, conventionally taken in molar units. Higher therefore signals a small IC50.

Assay [1] relates to A549 non-small cell lung cancer cell line of a mutation RONΔ155 type. Description: MTS assay, cell growth inhibitory ability, A549. It counts as cell-based. As to conditions: Homo sapiens; A549, RON mutation Δ155, 72 hours. As for the experimental part:
(§1) In order to compare and confirm the cell growth inhibitory ability of Examples 1 (WM-S1-030) to 5, positive control 1 (BMS-777607) and positive control 2 (AMG-510) in four non-small cell lung cancer cell lines of a mutation RONΔ155 type (Calu-6, A549, NCI-H358, NCI-H1944), MTS assay was carried out.
(§2) For MTS assay, 1,000 cells of each non-small cell lung cancer cell line per well were seeded in a 96-well-plate, and 24 hours later, treated with the compounds of Examples 1 to 5, positive control 1 and positive control 2 at various concentrations ([…]) in 100 μL of 10% FBS-RPMI medium (Welgene) per each well. Thereafter, the cells were cultured for 72 hours, and then 20 μL of MTS solution (Promega) was added and cultured for 2 hours, and then absorbance was measured at 490 nm. The cytotoxicity was analyzed by deriving the IC50 for the compounds of Examples 1 to 5, positive control 1 and positive control 2 using GraphPad Prism™ 5.

The subject of assay [2] is pTyr-mRON, cleaved caspase 3, cyclin D1 in NCI-H358 (mRONΔ155) tumor. The assay can be described thus: Protein expression change by immunochemical staining of tumor tissue, NCI-H358 transplanted animal model. Format: in vivo, mouse. The settings on record: 3 mpk, 10 mpk, 30 mpk, FIG. 4. How it is done:
Example 1 (WM-S1-030) was administered at each concentration (3 mpk, 10 mpk, 30 mpk) to a mouse model transplanted with NCI-H358, which is a non-small cell lung cancer cell line of a mutation RONΔ155 type, and then the tumor was extracted, and the expression changes of the proteins were analyzed by immunochemical staining.
(§3) Specifically, paraffin slides were prepared using tissues isolated from the sacrificed mice. The tissue sections were deparaffinized and rehydrated, immersed in the target recovery buffer 1×(ScyTek Laboratories, Cat #CBB999) and heated for 15 minutes to perform an antigen recovery process. After the reaction, the tissue sections were washed in Tris buffered saline-0.05% Tween 20 (TBS-T)(T&I, BTT-9310) for 5 minutes, and then the reaction was performed with a non-specific antibody response blocking reagent (vector, SP-5035) for 1 hour.
(§4) The tissue sections were cultured at 4° C. overnight with mRON (Abcam, ab52927, 1:50), pTyr-mRON (Mybioscience, MBS462024, 1:100), cleaved caspase 3 (Asp175)(R&D Systems, MAB835, 1:50), and cyclin D1 (cyclin D1 (SP4), #Z2027RS, 1:100) and then washed with TBS-T for 5 minutes, and then endogenous peroxidase activity was blocked using a peroxidase blocking reagent (Cellmarque, 925B-05). Thereafter, the tissue sections were washed with TBS-T for 5 minutes and then incubated with a rabbit secondary antibody (vector, PK-6101) at room temperature for 1 hour. The tissue sections were washed with TBS-T for 5 minutes and then colored with diaminobenzidine (cat #SK-4100). In order to stain the nuclei of the tissues, they were stained with hematoxylin (ScyTek Laboratories, HMM999) for 1 minute, dehydrated, and then encapsulated.

Assay [3] relates to Calu-6 non-small cell lung cancer cell line of a mutation RONΔ155 type. Description: MTS assay, cell growth inhibitory ability, Calu-6. As to conditions: Homo sapiens; Calu-6, RON mutation Δ155, 72 hours. Format: cell-based. How it is done:
as §1, §2
(In general: Tetrazolium dyes change colour on reduction, which living cells bring about.)

The subject of assay [4] is A549 (mRONΔ155) non-small cell lung cancer cell line transplanted mouse model. Description: Tumor growth inhibition in A549 transplanted animal model. Format: in vivo. As to conditions: A549 xenograft, 50 mg/kg, orally once a day for 3 weeks. How it is done: (§5) It was confirmed whether tumor growth was inhibited by administering Example 1 (WM-S1-030) at a dose of 50 mpk to a mouse model transplanted with A549, which is a non-small cell lung cancer cell line of a mutation RONΔ155 type. Specifically, 5-week-old female BALB/c-nude mice were purchased and acclimatized for 1 week. Thereafter, A549 (5×10^6 cells/mouse), a non-small cell lung cancer cell line of a mutation RONΔ155 type, was diluted in PBS (phosphate buffered saline), and 100 μL was injected subcutaneously into the right dorsal side of the mouse. When the size of the tumor reached about 100 mm^3, the negative control (excipient) and Example 1 were orally administered. The drug was administered once a day for 3 weeks, and the tumor size and body weight were measured twice a week. After the drug administration was completed, the mice were euthanized, the tumor was extracted, and the weight was measured.

Assay [5] relates to pTyr-mRON, cleaved caspase 3, cyclin D1 in NCI-H460 (mRONΔ165) tumor. The assay can be described thus: Protein expression change by immunochemical staining of tumor tissue, NCI-H460 transplanted animal model. Format: in vivo, mouse. As to conditions: 30 mpk, 50 mpk, FIG. 6. How it is done:
Example 1 (WM-S1-030) was administered at each concentration (30 mpk, 50 mpk) and positive control 1 was administered at a dose of 50 mpk to a mouse model transplanted with NCI-H460, which is a non-small cell lung cancer cell line of a mutation RONΔ165 type, and then the tumor was extracted, and the expression changes of the proteins were analyzed by immunochemical staining.
as §3
as §4, with “1:50),” for “1:50), and”

The test system of assay [6] is NCI-H358 non-small cell lung cancer cell line of a mutation RONΔ155 type. The assay can be described thus: MTS assay, cell growth inhibitory ability, NCI-H358. Format: cell-based. The settings on record: Homo sapiens; NCI-H358, RON mutation Δ155, 72 hours. As for the experimental part: as §1, §2
Assay [7] relates to NCI-H358 (mRONΔ155) non-small cell lung cancer cell line transplanted mouse model. Description: Tumor growth inhibition in NCI-H358 transplanted animal model. Format: in vivo. The settings on record: NCI-H358 xenograft, orally once a day for 38 days. How it is done:
as §5, with “of 3 mpk, 10 mpk and 30” for “of 50”, “with NCI-H358,” for “with A549,”, “Thereafter, NCI-H358” for “Thereafter, A549”, “PBS” for “PBS (phosphate buffered saline),”, “and Matrigel, and 200” for “and 100”, “for 38 days,” for “for 3 weeks,”

For assay [8], the system named is NCI-H1944 non-small cell lung cancer cell line of a mutation RONΔ155 type. The assay can be described thus: MTS assay, cell growth inhibitory ability, NCI-H1944. It counts as cell-based. As to conditions: Homo sapiens; NCI-H1944, RON mutation Δ155, 72 hours. How it is done:
as §1, §2

In assay [9] the test system is NCI-H460 (mRONΔ165) non-small cell lung cancer cell line transplanted mouse model. The assay can be described thus: Tumor growth inhibition in NCI-H460 transplanted animal model. Format: in vivo. As to conditions: NCI-H460 xenograft, 50 mg/kg, once a day for 2 weeks. How it is done: It was confirmed whether tumor growth was inhibited by administering Example 1 (WM-S1-030) at a dose of 50 mpk to a mouse model transplanted with NCI-H460, which is a non-small cell lung cancer cell line of a mutation RONΔ165 type. Specifically, 5-week-old female BALB/c-nude mice were purchased and acclimatized for 1 week. Thereafter, NCI-H460 (2×10^6 cells/mouse), a non-small cell lung cancer cell line of a mutation RONΔ165 type, was diluted in PBS and Matrigel, and 200 μL was injected subcutaneously into the right dorsal side of the mouse. When the size of the tumor reached about 100 mm^3, the negative control (excipient) and Example 1 were orally administered. In this case, positive control 1 (BMS-777607) was administered at a dose of 50 mpk. The drug was administered once a day for 2 weeks, and the tumor size and body weight were measured twice a week. After the drug administration was completed, the mice were euthanized, the tumor was extracted, and the weight was measured.

On to `CCOc1ccn(-c2ccc(F)cc2)c(=O)c1C(=O)Nc1ccc(Oc2ccnc3cc(-c4ccc(CN5CCOCC5)cn4)sc23)c(F)c1.Cl` [Example 1, 4-ethoxy-N-[3-fluoro-4-({2-[5-(morpholinomethyl)pyridin-2-yl]thieno[3,2-b]pyridin-7-yl}oxy)phenyl]-1-(4-fluorophenyl)-2-oxo-1,2-dihydropyridine-3-carboxamide hydrochloride], for which the negative-log IC50 (pIC50) in assay [1] is 5.69; in assay [3], 6.14; in [6], 5.90; in [8], 5.79. In addition, the “expression of cleaved caspase 3” value in assay [2] and in assay [5] was “induced” each time. Moreover, the “expression of cyclin D1, a PD marker” value in [2] and in assay [5] was “decreased” throughout. In addition, the “expression of pTyr-mRON” value in [2] and in assay [5] was “decreased” each time. For the same compound, the “Tumor growth inhibition rate (TGI, %)” value in assay [4] is 58.9 ± 3.8%; in [7] (3 mg/kg), 12.3 ± 13.8%; in assay [7] (10 mg/kg), 64.5 ± 6.2%; in assay [7] (30 mg/kg), 91.0 ± 2.3%; in assay [9], 69.7 ± 5.4%.
